In US20260209260A1, “VECTORIZED NHC IRIDIUM(III) COMPLEXES AND USE THEREOF IN PHOTODYNAMIC THERAPY AND/OR DIAGNOSTIC” (CENTRE NATIONAL DE LA RECHERCHE SCIENTIFIQUE, priority 2022, published 2026):
Where “and” joins values, the source holds several entries; their conditions need not be identical. Equal entries are not always repeated. Where two headings read alike, the source gives them in different places.

Key:
[1] = Singlet oxygen (1O2) production, ABDA indicator, blue LED 458 nm
Protocol: The detection of […] generation of iridium complexes was measured with 9,10-anthracenediyl-bis(methylene)dimalonic acid (ABDA) as an ^1O2 indicator and Ru(bpy)3Cl2 as a standard according to a modified reported method. Experiments were conducted using ABDA (50 μM) in phosphate buffered solution (PBS, pH 7.4), the respective iridium complex, i.e. (I-e), (I-g), (I-h), (I-j), (II-e), (II-g), (II-h), (II-j), (III-i), (III-j), (III-k), (III-h), (IV-i), (IV-j), (IV-k), (IV-h) and Ru(bpy)3Cl2 (5 μM) in a mixture of H2O/CH3CN (50/50) with a ratio ABDA/complex of […] and a final volume of 3 mL. ABDA oxidation was monitored by UV-vis spectrophotometry. The samples were irradiated with a blue custom-made LED plate (458 nm, 4.5 mWcm^−2). During irradiation UV-vis absorption spectra were recorded at 5, 10, 15, 20, 30 and 45 min. The ^1O2 generation was followed by monitoring the absorption spectral change at 380 nm of ABDA versus time.

[2] = tested on: A549 lung cancer cells; assay: Cell viability assay (MTT), dark and blue light; assay type: cell-based, Human; conditions: for GI50: read-out: GI50
Summary of the method: (§1)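 Cells seeded at 5,000–10,000/well, attached overnight, then exposed to complexes in DMSO (final 0.1% v/v) for 72 h in the dark, or for 8 h dark followed by 10 min irradiation and dark incubation to 72 h. MTT added 3–4 h at 37 °C; formazan dissolved in DMSO, read at 570 nm.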

[3] = tested on: T24 bladder cancer cells; assay: Cell viability assay (MTT), dark and blue light; assay type: cell-based, Human; conditions: for GI50: read-out: GI50
Summary of the method: as §1

[4] = tested on: MCF7 breast cancer cells; assay: Cell viability assay (MTT), dark and blue light; assay type: cell-based, Human; conditions: for GI50: read-out: GI50
Summary of the method: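 Absorbance of MTT formazan at 570 nm gives viability after 72 h exposure to the complexes in 0.1% (v/v) DMSO. Irradiated wells got 10 min of 458 nm light after 8 h of dark incubation.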

[5] = tested on: PC-3 prostate cancer cells (PSMA-negative); assay: Cell viability assay (MTT), dark and blue light; assay type: cell-based, Human
Summary of the method: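 Two parallel arms: continuous 72 h dark exposure, or 8 h preincubation followed by 10 min blue light at 458 nm (9.6 W LEDs) and further dark incubation to 72 h. Final DMSO 0.1% (v/v); MTT formazan read at 570 nm, triplicate runs repeated at least three times.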

[6] = tested on: cancer cells (all tumor cell lines tested); assay: Cell viability assay (MTT), summary over the cancer cell lines tested; assay type: cell-based, Human
Summary of the method: as §1

[7] = tested on: non-tumor cells (NIH-3T3 and MC3T3); assay: Cell viability assay (MTT), summary over the non-tumor models; assay type: cell-based, Murine
Protocol: Cells were grown in humidified incubators at 37° C. in 5% CO2. Murine MC3T3 osteoblast and NIH-3T3 fibroblast cells-used as non-tumor cell models-were cultured in a-MEM medium and DMEM medium supplemented with 10% fetal bovine serum (FBS) and 1% Penicillin/Streptomycin (P/S) antibiotics, respectively. Human T24 bladder, MGHU3 bladder, Scaber bladder, A549 lung, MCF7 breast, MiaPaCa2 pancreas cancer cells were cultured in DMEM medium supplemented with 10% FBS and 1% P/S antibiotics. […] Human Hela cervix and HepG2 liver cancer cells were cultured EMEM medium supplemented with 10% FBS and 1% P/S antibiotics.
MTT reagent (3-(4,5-dimethylthiazol-2-yl)-2,5-diphenyltetrazolium bromide) was used to determine cell death as originally described by Mosmann. Briefly, cells were seeded from 5,000 to 10,000 cells/well in 24-well plates (1 mL) depending on the cell type and allowed to attach overnight. The complexes were prepared in DMSO. The concentration of the complexes was calculated based on the elemental composition of the complexes determined by the elemental analyses. All cell viability experiments were carried out with a fixed concentration of 0.1% (v/v) DMSO. After 72 h of treatment, cells were incubated at 37° C. and 5% CO2 with 25 μL of MTT solution (5 mg/ml; Sigma-Aldrich) in 24-well plates for 3 to 4 h. After solubilization with 500 μL of DMSO, formazan was quantified spectrophotometrically with a microplate reader at 570 nm absorbance (ClarioSTAR, BMG LabTech). […] All the results were calculated from data obtained in at least three independent experiments performed in triplicate.
Two sets of experiments were conducted in parallel for each complex to be studied:
1. The cells were incubated with the different complexes (in the dark) for 72 h.
2. The cells were incubated for 8 h with the different complexes (in the dark), then irradiated for 10 min, followed by an incubation in the dark up to 72 h.

F[P-](F)(F)(F)(F)F.O=C(NCCCn1cc[n+]2[c]1[Ir-3]13([c]4c(sc5ccccc45)-c4cccc[n+]41)([c]1c(sc4ccccc14)-c1cccc[n+]13)[n+]1ccccc1-2)[c-]1cccc1.[Fe+2].c1cc[cH-]c1 [IV-j]
consumption of ABDA (1O2 production) ([1]; 4.5 mWcm^−2): fast complete consumption of ABDA | depletion of the ABDA absorbance at 380 nm (1O2 production) ([1]; 4.5 mWcm^−2, 5-45 min, PBS pH 7.4): fast depletion of the ABDA absorbance at 380 nm | GI50 ([2]; A549, blue light): 0.37 µM | SI (vs MC3T3) ([2]; A549, dark): 2.5 | SI (vs NIH-3T3) ([2]; A549, dark): 9.7 | Photosensitizing index (PI) ([2]; A549, dark vs blue light): 17.6 | GI50 ([2]; A549, dark): 6.5 µM | SI (vs NIH-3T3) ([3]; T24, blue light): 108.5 | GI50 ([3]; T24, blue light): 130 nM | SI (vs NIH-3T3) ([3]; T24, dark): 22.7 | Photosensitizing index (PI) ([3]; T24, dark vs blue light): 21.5 | GI50 ([3]; T24, dark): 2800 nM | GI50 ([4]; MCF7, blue light): 720 nM and 420 nM | SI (vs NIH-3T3) ([4]; MCF7, dark): 9.5 | Photosensitizing index (PI) ([4]; MCF7, dark vs blue light): 15.7 | GI50 ([4]; MCF7, dark): 6600 nM | SI (vs MC3T3) ([5]; PC3, dark): 2.2 | Photosensitizing index (PI) ([5]; PC3, dark vs blue light): 121.7 | GI50 ([5]; PC3, dark, read-out: GI50): 7.3 µM | selectivity for cancer cells over non-tumor cells, in words [6]: most selective effects under irradiated conditions | GI50 ([6]; blue light 458 nm, read-out: GI50 mean over cancer cells, irradiated): 228 nM | PI values, mean over cancer cells ([6]; dark vs blue light 458 nm): 39.8 fold | increase in cell toxicity in cancer cells compared to non-tumor models ([6]; irradiated conditions): 39 fold | GI50 ([7]; blue light 458 nm, read-out: GI50 mean over non-tumor models, irradiated): 8.4 µM | mean PI value in NIH-3T3 and MC3T3 non-tumoral cells ([7]; dark vs blue light 458 nm): 2.8 fold
